According to US12280040B2, “Compositions and methods of a dihydroisoxazole compound that reduces ectoparasite infestations on fish” (EVAH Atlantic Inc., priority 2023, dated 2025):

System: copepodid stage of sea lice
Assay: Bath test against copepodid stage of sea lice
Type: in vivo
Conditions: in a bath at similar dosage
From the text: While compounds in this class act with similar modes of action (in this case on the gamma-aminobutyric acid (GABA) and glutamate gated chloride channels), differences do exist among them that influence pharmacological activity.

## C#CCNC(=O)CNC(=O)c1sc(C2=NOC(c3cc(Cl)cc(Cl)c3)(C(F)(F)F)C2)cc1C (stereo not shown)
  activity against the copepodid stage of sea lice: inactive
